Results: US20170119833A1, “ACANTHOSPERMUM HISPIDUM COMPOSITION FOR THE TREATMENT OF CANCER AND METHODS FOR ITS MANUFACTURE” (priority 2014, published 2017)

Experiments:
Assay type in all cases: in vivo, Swiss albino mice
DAL [1] = assay: Dead cell count of DAL ascitic fluid in mice
Experimental: (§1) The extracts used were in the form of suspension with tween-20 (one part by volume) and distilled water (two parts by volume). The prepared extracts were also used for further studies. Animals used for studies were Swiss albino mice. Six experiments were carried for each plant extract.
(§2) After development of tumor the drug treatment was given on the 9th day and the 18th day post tumor inoculation. The peritoneal fluid was collected once on the 11th day and 20th day from each mouse and the following parameters were examined in antitumor assessment:
Ascitic fluid for cell cytology, specifically dead cell count and histopathology.
(§3) Statistical analysis: The data for anti-tumor activity was analyzed by one-way ANOVA followed by Dunnett's ‘t’ test. P<0.05 was considered statistically significant.

DAL [2] = assay: Hematological parameters in DAL-bearing mice; details: 5-FU 12.5 mg/kg p.o., extracts 300 mg/kg p.o.
Experimental: The extracts used were in the form of suspension with tween-20 (one part by volume) and distilled water (two parts by volume). The prepared extracts were also used for further studies. Animals used for studies were Swiss albino mice. Six experiments were carried for each plant extract. After development of tumor the drug treatment was given on the 9th day and the 18th day post tumor inoculation. […] Hematological parameters, such as WBC, RBC, Hb, differential Leucocyte count; Statistical analysis: The data for anti-tumor activity was analyzed by one-way ANOVA followed by Dunnett's ‘t’ test. P<0.05 was considered statistically significant.

DAL [3] = assay: Mean survival time (MST) in DAL-bearing mice
Experimental: as §1, §2
Mean Survival time (MST);
as §3

DAL [4] = assay: Body weight (tumor volume) of DAL-bearing mice; details: for body weight: mean of six experiments
Experimental: as §1, §2
Body weight (tumor volume). All parameters were examined with standard procedures.

Question: How did the “% of dead cells” value (DAL [1]; 11th day) turn out when `O=c1[nH]cc(F)c(=O)[nH]1` [5-FU, 5-Fluorouracil] was run?
Answer: 35%

Question: What about the “% protection against tumor” value (DAL [1]; 11th day) of the same compound?
Answer: 52%

Question: What about the “% of dead cells” value (DAL [1]; 20th day) of the same compound?
Answer: 51%

Question: What about the “% protection against tumor” value (DAL [1]; 20th day) of the same compound?
Answer: 54.54%

Question: What about the “Hb g/dl ± SEM” value (DAL [2]; Day 11) of the same compound?
Answer: 5.8 ± 0.98 g/dL

Question: What about the “Lymphocytes ± SEM” value (DAL [2]; Day 11) of the same compound?
Answer: 48 ± 0.41

Question: And the Monocytes (DAL [2]; Day 11)?
Answer: 2

Question: What about the “Neutrophils ± SEM” value (DAL [2]; Day 11) of the same compound?
Answer: 56 ± 0.82

Question: And the “RBC × 10^6 ± SEM” value (DAL [2]; Day 11)?
Answer: 2.20 ± 0.08 × 10^6

Question: And the “Hb g/dl ± SEM” value (DAL [2]; Day 20)?
Answer: 7.2 ± 0.04 g/dL

Question: And the “Lymphocytes ± SEM” value (DAL [2]; Day 20)?
Answer: 54.98 ± 0.81

Question: What about the Monocytes (DAL [2]; Day 20) of the same compound?
Answer: 2

Question: What about the “Neutrophils ± SEM” value (DAL [2]; Day 20) of the same compound?
Answer: 34.98 ± 0.03

Question: What about the “RBC × 10^6 ± SEM” value (DAL [2]; Day 20) of the same compound?
Answer: 2.61 ± 0.03 × 10^6

Question: What about the “WBC ± SEM” value (DAL [2]; Day 20) of the same compound?
Answer: 11,600 ± 2.03

Question: What about the “No. of Days Alive ± SEM” value (DAL [3]; DAL-bearing mice) of the same compound?
Answer: 26 ± 0.24 days

Question: What about the “Mean Survival time (%)” value (DAL [3]; tumor control (DAL) = 100) of the same compound?
Answer: 110%

Question: And the “% increase in body weight on 20th day post-tumor inoculation” value (DAL [4]; 20th day post-tumor inoculation)?
Answer: 32.08%

Question: And the body weight (DAL [4]; day 9 post tumor inoculation)?
Answer: 22.33 grams

Question: And the body weight (DAL [4]; day 10 post tumor inoculation)?
Answer: 22.33 grams

Question: And the body weight (DAL [4]; day 11 post tumor inoculation)?
Answer: 22.66 grams

Question: What about the body weight (DAL [4]; day 12 post tumor inoculation) of the same compound?
Answer: 23 grams

Question: What about the body weight (DAL [4]; day 13 post tumor inoculation) of the same compound?
Answer: 26.33 grams

Question: And the body weight (DAL [4]; day 14 post tumor inoculation)?
Answer: 27 grams

Question: And the body weight (DAL [4]; day 15 post tumor inoculation)?
Answer: 28.66 grams

Question: What about the body weight (DAL [4]; day 18 post tumor inoculation) of the same compound?
Answer: 30 grams

Question: And the body weight (DAL [4]; day 20 post tumor inoculation)?
Answer: 30 grams

Question: What about the body weight (DAL [4]; day 21 post tumor inoculation) of the same compound?
Answer: 30 grams

Question: What about the body weight (DAL [4]; day 24 post tumor inoculation) of the same compound?
Answer: 30 grams
